From patent US20200352878A1, “USE OF CANNABINOIDS IN THE TREATMENT OF EPILEPSY” (priority 2018, published 2020)

Assays:
[1] = Open-label, fixed sequence healthy volunteer drug-drug interaction trial of CBD and stiripentol (steady-state pharmacokinetics, safety); assay type: in vivo, human; settings: healthy volunteers
Method: As part of an open-label, fixed sequence, healthy volunteer trial the primary objective was to investigate the impact of CBD (750 mg twice daily) on the steady-state pharmacokinetics of stiripentol (STP) (750 mg) and the reciprocal effect on CBD, 7-hydroxy-cannabidiol (7-OH-CBD) and 7-carboxy-cannabidiol (7-COOH-CBD).
Analyte plasma concentrations were determined using validated bioanalytical methods. A secondary objective was to evaluate the safety and tolerability of CBD when co-administered with STP.

[2] = tested on: convulsive seizures in patients with treatment-resistant Dravet syndrome; test: Clinical trial of adjunctive CBD in treatment-resistant Dravet syndrome; analysis of the interaction with concomitant AEDs; assay type: in vivo, human; settings: for Percentage of patients with greater than 50% reduction in seizures: Dravet syndrome patients aged 2-18 years, convulsive seizures over treatment period vs 4-week baseline, CBD 20 mg/kg/day or placebo added to current AEDs
Method: Following completion of a 4-week baseline period, patients were randomized to receive either 20 mg/kg/day CBD (n=61) or placebo (n=59). CBD or placebo were added to their current anti-epileptic treatment which remained stable over the treatment period of the study.
Seizure counts were reported daily via an Interactive Voice Response System. Convulsive seizures were defined as all countable atonic, tonic, clonic, and tonic-clonic seizures. The primary efficacy end point was percent change from baseline in convulsive seizures.
During a 4-week baseline period, patients were required to have at least 4 convulsive seizures (tonic-clonic, clonic, tonic or atonic) while on stable AED therapy. Patients had previously failed a median of 4 prior AEDs and 93% were taking 2 or more concomitant AEDs during the trial. The most commonly used concomitant AEDs (>25% of patients) were clobazam, valproate, stiripentol, levetiracetam, and topiramate.
Following the trial statistical analysis was performed on the various patient groups to determine whether there was an interaction between any of the concomitant AEDs that the patients were taking.
Table 6 below describes the percentage of patients that recorded a 50% reduction in convulsive seizures over the treatment period.

[3] = CBD 750 mg twice daily, STP 750 mg, plasma

For `C=C(C)[C@@H]1CCC(C(=O)O)=C[C@H]1c1c(O)cc(CCCCC)cc1O` [7-COOH-CBD, 7-carboxy-cannabidiol], the “reduction of exposure by co-administered STP” value [1, 3] was 13%.
With `C=C(C)[C@@H]1CCC(CO)=C[C@H]1c1c(O)cc(CCCCC)cc1O` [7-OH-CBD, 7-hydroxy-cannabidiol] the “reduction of exposure by co-administered STP” value [1, 3] was 29%.
In the case of `C=C(C)[C@@H]1CCC(C)=C[C@H]1c1c(O)cc(CCCCC)cc1O` [CBD, cannabidiol], the “effect of co-administration of STP on CBD exposure” value [1, 3] is reported as “no effect”, the “most common adverse event (AE)” value ([1]; CBD co-administered with STP) is reported as “diarrhoea” and the “median percent change from baseline in reduction of convulsive seizures, compared with placebo” value ([2]; CBD 20 mg/kg/day group (n=61) vs placebo (n=59), p=0.0123) is reported as “statistically superior to placebo”.
In the case of `CC(C)(C)C(O)/C=C/c1ccc2c(c1)OCO2` (stereo not shown) [Stiripentol, stiripentol], the “Percentage of patients with greater than 50% reduction in seizures” value [2] is reported as 14% and the “Percentage of patients with greater than 50% reduction in seizures” value ([2]; listed as stiripentol) is reported as 14%.
